Measurements from PubChem BioAssay AID489035 (Sanford-Burnham Center for Chemical Genomics, 2010).
The source made the active and inactive calls. How the calls were made is not given here.

The compounds below were run on Jurkat NF-kB reporter, TCR-induced, luciferase luminescence (assay: inhibitors of TCR-driven NF-kB activation, dose response, Jurkat cells, luminescence (AID 489035)).

Row | IC50 | SMILES
1 | > 80 µM (inactive) | COC(=O)Nc1ccc(S(=O)(=O)N2CCCc3ccccc32)cc1
2 | > 80 µM (inactive) | O=C(NNc1ccnc2cc(Cl)ccc12)C1CCCCC1
3 | 4.9 µM | Cc1ccc(-n2ncc3c(N4CCN(c5ccccc5)CC4)ncnc32)c(C)c1
4 | 21.8 µM (inactive) | CCOc1cccc(/C=N/Nc2ccc(S(=O)(=O)N(CC)CC)cn2)c1O
5 | 9.77 µM | C#CC[N+](C)(C)CCCCCCCCCCCC
6 | 0.38 µM | C[C@@H]1C=CC(=O)O[C@@H]1c1ccc(Cl)cc1
7 | 61 µM (inactive) | Cc1cc(C)c(S(=O)(=O)Nc2ccc3c4c(cccc24)CC3)c(C)c1
8 | 54.5 µM (inactive) | Cc1ccc(C(=O)c2cc([N+](=O)[O-])ccc2N2CCOCC2)c(C)c1
9 | 78.3 µM (inactive) | CCOC(=O)c1ccccc1NS(=O)(=O)c1ccc(OCC)cc1
10 | 7.97 µM | Cn1nc([N+](=O)[O-])nc1Sc1nnc(-c2ccccc2)o1
11 | 25.3 µM (inactive) | COc1cc(-c2noc(C)c2-c2ccc3[nH]ccc3c2)cc(OC)c1OC
12 | > 80 µM (inactive) | O=c1cc(-c2ccccc2)[nH]c2cc(F)ccc12
13 | 1.88 µM | CCOC(=O)C1CCN(S(=O)(=O)c2c(Cl)ccc3nonc23)CC1
14 | 0.33 µM | COc1ccc(C(C(=O)NC2CCCCC2)N(C(=O)CCl)c2ccc(C)cc2)cc1 (centres undefined)
15 | > 80 µM (inactive) | O=C(Nc1ccc(F)cc1)c1ccc(CN2CCc3ccccc3C2)cc1
16 | 10 µM | CCCOc1ccc(/C=N/Nc2cc(N3CCOCC3)ncn2)c(O)c1
17 | > 80 µM (inactive) | CCOc1ccc(Br)cc1C1=CC(=O)C[C@H](c2ccc(OC)cc2)C1
18 | 5 µM | CNC[C@@H](CC1CCCCC1)NC[C@H](CC(C)C)NCCc1cccc(C(F)(F)F)c1
19 | 4.63 µM | CCN1/C(=C/C(C)=C/c2sc3ccccc3[n+]2CC)Sc2ccccc21
20 | 61.3 µM (inactive) | CC(Oc1ccc(Cl)cc1Cl)C(=O)Nc1ccncc1 (centres undefined)
21 | 0.96 µM | COc1ccc(C[C@H](N)C(=O)N[C@H]2[C@@H](O)[C@H](n3cnc4c(N(C)C)ncnc43)O[C@@H]2CO)cc1
22 | > 80 µM (inactive) | COc1ccc(OC)c(NS(=O)(=O)c2ccc(N3CCCC3=O)cc2)c1
23 | < 0.16 µM | O=S1(=O)C=C(Sc2nc3cc(Cl)ccc3o2)c2ccccc21
24 | > 80 µM (inactive) | Cc1cccc(N2CCN(C(=O)c3c(-c4ccccc4)noc3C)CC2)c1C

Row | IC50 | SMILES
25 | > 80 µM (inactive) | O=C(Nc1ccncc1)c1ccc(Cl)c(S(=O)(=O)N2CCc3ccccc32)c1
26 | 24.5 µM (inactive) | COc1cc(C(=O)N2CCN(c3cc(Cl)ccc3Cl)CC2)cc(OC)c1OC
27 | 0.98 µM | Cc1ccc2cccc(NS(=O)(=O)c3ccccc3)c2n1
28 | > 80 µM (inactive) | O=S(=O)(c1ccc2c(c1)OCCO2)N1CCN(c2ncnc3sccc23)CC1
29 | > 80 µM (inactive) | Cc1ccc(C(=O)Nc2ncc(Cc3ccc(SC(F)F)cc3)s2)cc1
30 | 0.98 µM | O=C(N/N=C\c1c(O)ccc2ccccc12)c1ccc(S(=O)(=O)N2CCCCC2)cc1
31 | 0.45 µM | COc1ccc(CS(=O)(=O)/C(Cl)=C(/Cl)C(=O)Nc2ccc(OC)nc2)cc1
32 | > 80 µM (inactive) | CCOC(=O)c1[nH]c(C)c(C(=O)OCC(=O)NC(C)c2ccc(F)cc2)c1C (centres undefined)
33 | 13 µM | CCCc1cc(C(=O)N/N=C/c2ccc(CC)s2)c2ccccc2n1
34 | 23 µM (inactive) | C=CCn1c(SCc2c(C)noc2C)nc2ccccc2c1=O
35 | > 80 µM (inactive) | Cc1ncoc1C(=O)NC1CCCc2c1cnn2-c1ccc(C(C)(C)C)cc1 (centres undefined)
36 | > 80 µM (inactive) | CCOC(=O)c1[nH]c2c(c1C)C(=O)CC(c1ccco1)C2 (centres undefined)
37 | > 80 µM (inactive) | CCCOc1ccccc1C1CC(=O)Nc2cc3c(cc21)OCO3 (centres undefined)
38 | 9.87 µM | CC(=O)N(C)C1=C(N2CCOCC2)C(=O)c2ccccc2C1=O
39 | 1.39 µM | O=C(O)c1ccc(-c2ccc(-c3ccccc3)cc2)s1
40 | > 80 µM (inactive) | Brc1ccc2c(c1)C(C1=NCCN1)c1ccccc1CS2 (centres undefined)
41 | > 80 µM (inactive) | O=c1cc(-c2cccc(F)c2)[nH]c2ccccc12
42 | > 80 µM (inactive) | Cc1ccc(O)c(NC(=O)CCC2CCCCC2)c1
43 | 20 µM (inactive) | CCc1ccc(/C=N/NC(=O)c2cc(C3CC3)nc3ccccc23)s1
44 | 0.63 µM | CC1=C(C(=O)OCc2ccc3c(c2)OCO3)C(c2ccc(Cl)cc2)NC(=O)N1 (centres undefined)
45 | 16.7 µM | COc1cccc(N2CCN(C(=O)c3ccc(CS(=O)c4ccccc4C)o3)CC2)c1 (centres undefined)
46 | 3.24 µM | CC(C)(C)c1csc(Sc2ccc([N+](=O)[O-])cn2)n1
47 | > 80 µM (inactive) | CC(C)CCOc1cccc(OCC(=O)Nc2ccncc2)c1
48 | 2.09 µM | CN=c1scc(-c2cccs2)n1/N=C/c1ccccc1O

Row | IC50 | SMILES
49 | > 80 µM (inactive) | COc1ccc(S(=O)(=O)Nc2cccc(-c3ccc4nncn4n3)c2)cc1F
50 | > 80 µM (inactive) | CCCCOc1ccccc1C1CC(=O)NC2=C1C(=O)CCC2 (centres undefined)
51 | 57.2 µM (inactive) | COc1ccccc1N1CCN(C(=O)C2c3ccccc3Oc3ccccc32)CC1
52 | > 80 µM (inactive) | O=C(NC(Nc1nc2ccc([N+](=O)[O-])cc2s1)(C(F)(F)F)C(F)(F)F)c1ccccc1
53 | > 80 µM (inactive) | CCCCCn1c2c(c(=N)c3ccccc31)CCC2
54 | 26.6 µM (inactive) | Cc1ccc2nc(C)c(CN3CCN(c4ccc([N+](=O)[O-])cc4Cl)CC3)n2c1
55 | > 80 µM (inactive) | CCn1ncc(C2=NOC(C(=O)NCc3ccc(Cl)cc3)C2)c1C (centres undefined)
56 | > 80 µM (inactive) | COc1cccc(N2CCN(C(=O)c3cn(Cc4ccccc4)nc3-c3cccnc3)CC2)c1
57 | 26.6 µM (inactive) | COC(=O)Nc1ccc(S(=O)(=O)N2c3ccccc3CCC2C)cc1 (centres undefined)
58 | > 80 µM (inactive) | O=C(c1ccc(Cl)cc1)c1cc([N+](=O)[O-])ccc1N1CCOCC1
59 | > 80 µM (inactive) | Cc1sc2ncnc(NC3CCN(Cc4ccccc4)CC3)c2c1C
60 | > 80 µM (inactive) | COc1ccc(C2=NOC(C(=O)NCc3cccs3)C2)cc1OC (centres undefined)
61 | > 80 µM (inactive) | COc1cc(-c2noc(C)c2-c2ccc(N(C)C)nc2)cc(OC)c1OC
62 | 2.79 µM | COc1ccccc1N1CCN(C(=O)c2cc(=O)c3cc(C)cc(C)c3o2)CC1
63 | 64.3 µM (inactive) | COCCn1c(C)cc(C2=NNC(=Nc3ccccc3F)SC2)c1C
64 | 6.33 µM | CCc1ccc(N2C(=O)C(Cl)=C(Nc3ccc(C(=O)N4CCCC4)cc3)C2=O)cc1
65 | > 80 µM (inactive) | CN(C)S(=O)(=O)c1ccc(Nc2nc(C3CC3)nc3c2nnn3Cc2ccccc2Cl)cc1
66 | 26.6 µM (inactive) | O=C(NN=Cc1c(O)ccc2ccccc12)c1ccc2c(c1)OCO2
67 | > 80 µM (inactive) | CCOc1ccc(N/C(N)=N/c2nc(CSc3nnc(C)s3)cc(=O)[nH]2)cc1
68 | 33 µM (inactive) | COc1ccc(S(=O)(=O)N2N=C(C)Oc3ccccc3C2=O)cc1
69 | 1.96 µM | Oc1ccc2ccccc2c1N=Nc1ccccn1
70 | > 80 µM (inactive) | CCOc1ccccc1C1CC(=O)Nc2cc(C)c(C)cc21 (centres undefined)

Row | SMILES | IC50
71 | C=CC[C@@H](CC/C=C/C=C/CC/C=C\[C@@H]1CSC([C@@H]2C[C@@H]2C)=N1)OC | 50.8 µM (inactive)
72 | COc1cc(OC)c(/C=C2\C(=O)Nc3ccccc32)c(OC)c1 | 18.4 µM
73 | O=S1(=O)Nc2c(ccc3cccnc23)-c2ccccc21 | 2.17 µM
74 | CC(C)(C)c1cc(C=C(C#N)C#N)cc(C(C)(C)C)c1O | > 80 µM (inactive)
